In article PMC5607274, “An iterative compound screening contest method for identifying target protein inhibitors using the tyrosine-protein kinase Yes” (Scientific Reports, 2017):

Target: T1, human recombinant Yes [a.a. 2–543 (end)] (Homo sapiens, UniProt P07947)
T1 construct: human recombinant Yes [a.a; 2–543 (end)]; purchased BPS Bioscience 40488
Assay: ADP-Glo kinase assay, inhibition rates of Yes phosphorylation activity (first and second screening)
Format: biochemical
Details: first screening; mean of n = 4 wells; 10 μmol L−1 compound
In short: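 Hits from a first pass were rescreened after re-dissolution from fresh powder. The first pass reported the mean inhibition rate of quadruplicate wells per compound. Activity was that of recombinant human Yes [a.a. 2–543] kinase, read out with the ADP-Glo ADP-detection method.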

T1 sequence (P07947 2-543): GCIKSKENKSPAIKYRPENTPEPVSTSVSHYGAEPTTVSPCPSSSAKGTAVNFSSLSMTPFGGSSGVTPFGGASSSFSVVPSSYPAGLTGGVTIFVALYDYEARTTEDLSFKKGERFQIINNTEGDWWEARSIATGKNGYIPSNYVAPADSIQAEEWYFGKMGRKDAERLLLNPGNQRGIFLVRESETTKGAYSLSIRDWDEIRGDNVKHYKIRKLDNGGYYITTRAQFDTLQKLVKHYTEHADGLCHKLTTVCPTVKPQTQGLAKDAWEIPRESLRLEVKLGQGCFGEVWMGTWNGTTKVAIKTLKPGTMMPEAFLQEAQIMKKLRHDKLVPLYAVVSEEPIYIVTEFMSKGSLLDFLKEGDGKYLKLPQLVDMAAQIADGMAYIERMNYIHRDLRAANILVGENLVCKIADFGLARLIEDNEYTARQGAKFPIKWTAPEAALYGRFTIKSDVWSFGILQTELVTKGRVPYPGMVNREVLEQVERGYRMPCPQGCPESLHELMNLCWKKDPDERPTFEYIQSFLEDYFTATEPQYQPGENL

| SMILES | First screening IR (inhibition rate) |
| --- | --- |
| Cc1ccc2[nH]c(C)c(CC(=O)Nc3n[nH]c(-c4ccccn4)n3)c2c1 [Compound Z653347886] | -3% |
| CS(=O)(=O)c1ccc(N2CCC2)c(S(C)(=O)=O)c1 [Compound Z666133744] | 8% |
| CCN(CC(C)C)c1ccc(S(C)(=O)=O)cc1S(C)(=O)=O [Compound Z666139280] | 7% |
| CN(CC1CC1)c1ccc(S(C)(=O)=O)cc1S(C)(=O)=O [Compound Z666145136] | 52% |
| COc1cc(CNC(=O)c2ccc[nH]c2=O)ccc1OCC(N)=O [Compound Z666252570] | 1% |
| Cc1cccn2cc(-c3ccc(NC(=O)c4ccc(=O)[nH]c4)cc3)nc12 [Compound Z666279820] | -9% |
| Cc1nn(-c2ccc(Br)cc2)c(C)c1C(=O)Nc1ncn[nH]1 [Compound Z727167436] | -2% |
| c1ccc2nc(Nc3cn[nH]c3)cnc2c1 [Compound Z729018028] | 45% |
| CNc1ccc(Nc2nccc(C(F)(F)F)n2)cn1 [Compound Z729056288] | -20% |
| NC(=O)c1cnc(NCc2ccnc(N3CCCCC3)c2)c(Cl)c1 [Compound Z729056808] | 2% |
| CCCNC(=O)CN(CCC)C(=O)c1cc(-c2ccccc2)nc2c1cnn2CC [Compound Z729700802] | 0% |
| O=C1CC(C(=O)Nc2cc(CC3CCCCC3)[nH]n2)c2ccc(F)cc2N1 (stereo not drawn) [Compound Z729744666] | 22% |
| COCCCn1c(=O)c2ccccc2n2c(=S)n(CN(Cc3ccc(N(C)C)cc3)C(C)C)nc12 [Compound Z729842360] | -9% |
| O=[N+]([O-])c1ccc(Nc2cccc(N3CCCC3)c2)c([N+](=O)[O-])c1 [Compound Z729847414] | 20% |
| O=C(CCCNC(=O)c1ccc(-c2ccccc2F)o1)Nc1ccc(Cl)cc1 [Compound Z730571712] | 2% |
| C#CCN(C1CCS(=O)(=O)C1)S(=O)(=O)c1ccccc1F (stereo not drawn) [Compound Z734126534] | -10% |
| Cn1c2ccccc2n2c3ccccc3c(=O)c(C#N)c12 [Compound Z734296158] | -2% |
| Cn1c2ccccc2n2c3cccc(F)c3c(=O)c(C#N)c12 [Compound Z734467112] | -1% |
| CC(C)(C)n1nc(C(=O)Nc2cccc(C3SCCCS3)c2)cc1C1CC1 [Compound Z735448522] | 2% |
| Brc1ccc2nc(CNCc3cnc(-c4ccccc4)nc3)cn2c1 [Compound Z736057568] | 4% |
| CCS(=O)(=O)c1ccc(S(=O)(=O)N2CCCSCC2)cc1 [Compound Z736543988] | 32% |
| CCN(C(C)C)S(=O)(=O)c1ccc(S(C)(=O)=O)cc1 [Compound Z736710192] | -4% |
| C/C=C/C=C/C(=O)NCc1cccc(C(=O)NCc2ccco2)c1 [Compound Z737550454] | 0% |
| CN(C(=O)c1ccc(NC(=O)C2CCCO2)cc1Cl)C1CCCCC1 (stereo not drawn) [Compound Z738379554] | 3% |

| SMILES | First screening IR (inhibition rate) |
| --- | --- |
| CN(C(=O)c1ccc(C2SCCCS2)cc1)c1ccc(C(N)=O)cc1 [Compound Z740420934] | 0% |
| Cn1c(C(=O)Nc2ccc(NC(=O)c3ccco3)c(Cl)c2)cc2ccccc21 [Compound Z751335838] | 55% |
| Cc1nc(NCCn2cccn2)c2cnn(-c3ccccc3)c2n1 [Compound Z751573116] | 14% |
| O=C(Nc1cc(Cl)cc(Br)c1OC(F)F)C(=O)N1CCCSCC1 [Compound Z754942410] | 13% |
| Cn1ccnc1C(O)(CC(=O)Nc1ccc(Oc2ncccn2)cc1)C(F)(F)F (stereo not drawn) [Compound Z757638538] | -7% |
| O=C(Nc1ccc2nc(-c3ccco3)[nH]c2c1)c1ccc(Cl)nc1 [Compound Z757780044] | 51% |
| Cn1c(C(=O)Oc2ccc(NC(=O)c3ccco3)cc2)cc2ccccc21 [Compound Z762214972] | -1% |
| O=C1CCc2cc(OC(=O)c3cn(-c4ccccc4)nc3-c3cccs3)ccc2N1 [Compound Z764721614] | 63% |
| NC(=O)Nc1ccc(-c2csc(CCc3ccccc3)n2)cc1 [Compound Z785638578] | 0% |
| Cc1noc(C)c1COC(=O)c1c[nH]cc1-c1ccc(Cl)s1 [Compound Z796939908] | 0% |
| NCCN1C(=O)C2C3C=CC(C3)C2C1=O (stereo not drawn) [Compound Z803067872] | 7% |
| CCOC(=O)N(C)c1ccc(Nc2nccc(C(F)(F)F)n2)cc1 [Compound Z805455424] | -19% |
| CCS(=O)(=O)N1CCN(S(=O)(=O)C2CCS(=O)(=O)C2)CC1 (stereo not drawn) [Compound Z805634984] | 2% |
| CN(c1ccc(I)cc1)S(=O)(=O)c1cn[nH]c1 [Compound Z805651486] | -1% |
| CS(=O)(=O)CCS(=O)(=O)c1ccc(N)cc1 [Compound Z808591212] | -1% |
| O=C(c1ccc(OCC2CC2)cc1)N1CCC(c2nnc3n2CCC3)CC1 [Compound Z809056560] | 2% |
| O=C1Cc2cc(S(=O)(=O)N3CCCc4cccc(OC(F)F)c43)ccc2N1 [Compound Z815677014] | -4% |
| CCCN1CCN(c2ccc(Nc3ccc4nnnn4n3)cc2Cl)CC1 [Compound Z815791244] | -24% |
| Cc1cc(NCC(O)COc2ccc(F)cc2)nc2ccccc12 (stereo not drawn) [Compound Z815806580] | -15% |
| Cc1nc(NCC2CCN(c3ccc(F)cc3)C2)c2cnn(C)c2n1 (stereo not drawn) [Compound Z815820560] | -4% |
| O=C(Nc1cnc2ccccc2c1)c1ccc(-n2ccc(C(F)(F)F)n2)cc1 [Compound Z815840280] | 9% |
| NC(=O)c1ccc(COc2ccc(I)cc2)c(F)c1 [Compound Z816021628] | -2% |
| Cn1ncc2c(N3CCCC3CO)ncnc21 (stereo not drawn) [Compound Z817034034] | 3% |
| O=C(Oc1cccnc1Br)c1nn(-c2ccccc2)c(=O)c2ccccc12 [Compound Z817738176] | 23% |

| SMILES | First screening IR (inhibition rate) |
| --- | --- |
| Cn1c(=O)c2cc(C(=O)Nc3ccc(F)c(Cl)c3)sc2n(C)c1=O [Compound Z818806818] | -3% |
| CC(C)(C)c1[nH]ncc1/C=C1/CCn2c1nc1cc(Cl)ccc1c2=O [Compound Z821199838] | -3% |
| Cc1cccc(CS(=O)(=O)CCS(C)(=O)=O)c1 [Compound Z822335078] | -2% |
| CC(C)(C)c1ncc(C(=O)Nc2ccc(F)c(NC(=O)C3CC3)c2)s1 [Compound Z825945954] | -24% |
| CS(=O)(=O)c1ccc(C(=O)NCc2ccc(-n3ccnc3)c(F)c2)cc1 [Compound Z826157056] | -29% |
| CC(C)n1ncc2cc(C(=O)NCc3ccc(-n4ccnc4)c(F)c3)cnc21 [Compound Z826159196] | 9% |
| Cc1cccc(NC(=O)CN2CCN(C(=O)CN3C(=O)Cn4c(cc5ccccc54)C3=O)CC2)c1C [Compound Z826666316] | -25% |
| Cc1cc(NC(=O)c2ccn(-c3ccccc3)n2)n(CCC#N)n1 [Compound Z826713438] | 5% |
| Cc1cc(NC(=O)/C=C/c2csc(C)n2)n(CCC#N)n1 [Compound Z826713788] | -15% |
| Cc1cc(NC(=O)c2cc3c(F)cccc3s2)n(CCC#N)n1 [Compound Z826713980] | -5% |
| Cc1nn(C)c2nc(-c3ccccc3)cc(C(=O)Nc3ccc4nc(CN5CCOCC5)[nH]c4c3)c12 [Compound Z826860216] | 35% |
| Oc1cccc(CN(c2ncnc3ccsc23)C2CC2)c1 [Compound Z826941792] | 1% |
| O=S1(=O)CCC(N2CCN(Cc3cc(Cl)cc(C4CCCCC4)c3O)CC2)C1 (stereo not drawn) [Compound Z827167912] | 7% |
| CC1CN(C(=O)Nc2ccccn2)CCN1C(=O)Nc1ccccn1 (stereo not drawn) [Compound Z827524892] | -21% |
| CCCN(C1CCS(=O)(=O)C1)S(=O)(=O)CCC (stereo not drawn) [Compound Z830071152] | 16% |
| Cc1cccc(C)c1OCC(O)CNc1ncnc2sc(C)c(C)c12 (stereo not drawn) [Compound Z838103434] | 13% |
| O=C(N/N=C/C=C/c1ccco1)c1ccc(-c2ccc(F)cc2)s1 [Compound Z839335172] | 6% |
| CC(=O)Nc1ccc(/C=C/C(=O)c2ccccc2-n2cccn2)cc1 [Compound Z839413590] | -15% |
| CCOC(=O)COc1ccc(C2(C)NC(=O)c3cc(Cl)ccc3N2)cc1 (stereo not drawn) [Compound Z839958866] | 5% |
| CCc1c(C(=O)CN2CCCC2c2ccsc2)[nH]c(C)c1C(C)=O (stereo not drawn) [Compound Z839968520] | 0% |
| O=C(OCc1noc(C2CC2)n1)c1c[nH]cc1-c1ccc(Cl)s1 [Compound Z847574324] | 10% |
| Cc1cc(C)n(C(C)C(=O)Nc2ccc(NC(=O)C(C)(C)C)cc2Cl)n1 (stereo not drawn) [Compound Z850607168] | 3% |
| C/C(=C\C(=O)N1CCN(c2cnccn2)CC1)C12CC3CC(CC(C3)C1)C2 [Compound Z850748812] | 12% |
| NC(=O)C1(CNC(=O)c2cc3c(cc2O)CCCC3)CCOCC1 [Compound Z856541214] | 17% |

Same assay, conditions: second screening, dissolved from fresh powder; n = 4; 10 μmol L−1 compound

| SMILES | Second screening IR (inhibition rate) |
| --- | --- |
| c1ccc2nc(Nc3cn[nH]c3)cnc2c1 [Compound Z729018028] | -12% |
| O=C1CCc2cc(OC(=O)c3cn(-c4ccccc4)nc3-c3cccs3)ccc2N1 [Compound Z764721614] | -5% |
| Cc1nn(C)c2nc(-c3ccccc3)cc(C(=O)Nc3ccc4nc(CN5CCOCC5)[nH]c4c3)c12 [Compound Z826860216] | -11% |
